Publication PMC3495945, “Org 214007-0: A Novel Non-Steroidal Selective Glucocorticoid Receptor Modulator with Full Anti-Inflammatory Properties and Improved Therapeutic Index” (PLoS ONE, 2012)
Where two headings read alike, the source gives them in different places.

Key:
[1] = system: primary human whole blood cells; experiment: Human whole blood PMA/anti-CD28-induced cytokine release; type: cell-based; settings: for IC50: read-out: IC50, PMA/anti-CD28-induced IL-5 release
From the text: Hereafter, supernatant was carefully collected and tested at the most optimal dilution (predetermined by a titration study on control samples) in a human TNFα-specific ELISA (for the LPS stimulated samples) or in a human IL-5-specific or human G-CSF-specific ELISA (for the PMA/anti-CD28 stimulated samples) (Duoset, R&D systems USA).

[2] = system: anti-CD3-induced IL-2 release; experiment: anti-CD3-induced IL-2 mouse model; type: in vivo; settings: oral; for ED50: Mus musculus, 1 hour before anti-CD3 i.p., Balb/c mice, read-out: ED50, reduction of anti-CD3-induced IL-2 serum levels; for efficacy, inhibition of anti-CD3-induced IL-2: relative to 10 mg/kg A420983 (100%)
Protocol: For both the LPS-induced TNFα as well as the anti-CD3 induced IL-2 model, female Balb/c mice of 8–12 week old were used. Mice were treated orally with 0.2 ml compound or vehicle (water/mannitol (5%) with 5% DMSO/5% chremophore for the LPS model or with 0.5% gelatine for the anti-CD3 model). One hour after oral treatment animals were challenged i.p. with 0.2 ml of either 20 μg/mouse LPS (Sigma, E. coli serotype 055:B5) or 5 µg/mouse hamster anti-CD3 monoclonal (BD Biosciences Pharmingen, art. nr. 553057, clone 145-2C11). Ninety minutes after LPS injection or 3 hours after anti-CD3 challenge, blood samples were collected and serum levels of TNFα or IL-2 were determined via specific ELISAs (BD Biosciences Pharmingen, San Diego, CA, USA). In the experiment that included treatment with RU486 to block GR, mice were dosed subcutaneously with 50 mg/kg RU486 30 minutes before the oral compound dosing. ED50 and % efficacy (maximal percentage inhibition of TNFα or IL-2 release) are determined using a 3 parameter sigmoidal curve calculation. Statistical analysis of the results was performed using an one-way ANOVA (log) test.

[3] = system: hepatic glucose metabolism; experiment: Mouse MIDA model for liver glucose metabolism; type: in vivo; settings: prednisolone 10 mg/kg, Org 214007-0 1.5 mg/kg; for glucokinase flux rate / gluconeogenic flux (de novo synthesis of glucose-6-phosphate) / glucose-6-phosphatase flux / glycogen phosphorylase flux / glycogen synthase flux rate / liver glucose balance / liver glycogen balance / metabolic clearance rate of blood glucose: 7 days p.o.; for fasting blood glucose levels vs vehicle: oral daily 7 days
Protocol: Eighteen hours after the last oral treatment and 9 hours after start of starvation, blood samples were taken from the tail vein and directly used for glucose measurements using “One touch Ultra” glucose meter from Lifescan EuroFlash (Lifescan Benelux Beerse, Belgium). The mouse MIDA study was performed as described previously by van Dijk et al., [52]. […] On the third day, mice were cannulated in the right jugular vein. After 7 days of treatment, mice were placed in small Plexiglas cages, which allowed collection of blood samples frequently in freely moving mice. Twenty four hours after the final dose and after a 9 hours starving period, a tail vein blood sample was used for a glucose measurement after which mice were shortly anesthetized to attach the infusion lines before the experiment. Filter paper was placed under the wired floor cages to collect urine samples and replaced hourly. Mice received an infusion of a sterilized aqueous solution containing [U-^13C]glucose (13 μmol/ml), [2-^13C]glycerol (160 μmol/ml), [1-^2H]galactose (33 μmol/ml) and paracetamol (1 mg/ml) at a rate of 0.54 ml/hr for 6 hours. During the experiment blood glucose was measured and blood spots for GCMS measurements were collected from tail tips just before the start of the infusion and at hourly intervals. Blood spots and urine filter papers were air-dried and stored at room temperature until analysis. Glucose and paracetamol-glucuronic acid (Par-GLcUa) were extracted from blood spot and urine filter papers, respectively, derivatised, and measured by GC-MS, essentially as described previously, [52]. The fractional isotopomer distribution according to GC-MS was corrected for fractional distribution due to the natural abundance of ^13C by multiple linear regression to obtain the excess mole fraction of mass isotopomers M0-M6 due to incorporation of infused labeled carbohydrates. From isotope dilution and infusion rates, the flux rates of the following metabolic pathways could be calculated: 1) de novo synthesis of G6P, 2) glucokinase, 3) glucose-6-phosphatase, 4) glycogenolysis, and 5) glycogen synthesis. The method of calculation was performed as described before, [52], [53].

Pharmacokinetics in mice = type: in vivo, mouse; settings: for half-life: read-out: T1/2 eli (converted); for C0: extrapolated to T=0, read-out: Cmax; for Tmax: female Balb/c mice
Protocol: For each time-point 3 female Balb/c mice are used. Tmax = Time of maximum observed concentration (in case of i.v. administration Tmax = 0 h); time is expressed in hours (h). Cmax = concentration corresponding to Tmax and expressed in nmol/ml, for i.v. dosing Cmax is extrapolated to T=0. T 1/2 eli(mination) (terminal half-life) = ln(2)/λz expressed in h(ours). AUClast = Area under the curve from the time of dosing (Dosing-time) to the last measurable concentration. AUCinf = predicted Area Under the Curve from the time of dosing extrapolated to infinity and expressed in “h*nmol/ml”. Vz = Volume of distribution based on the terminal phase = Dose / λz* AUCinf and expressed inL/kg. Cl = total body clearance = Dose / AUCinf and expressed in L/h/kg. MRTinf = mean residence time (MRT) extrapolated to infinity for non-infusion models, expressed in h. Vss = gives an estimate of the volume of distribution at steady-state and is expressed in L/kg. […] The bioavailability is expressed in %. i.v. = intraveneously, p.o. = per oral

[4] = human whole blood, P/28, prednisolone = 100%
[5] = female, Balb/c, mouse, in vivo, iv, 4 umol/kg, 4 μmol/kg i.v.
[6] = female, Balb/c, mouse, in vivo, po, 10 umol/kg, 10 μmol/kg p.o.
[7] = female, Balb/c, mouse, in vivo, iv, 10 umol/kg, 10 μmol/kg i.v.
[8] = female, Balb/c, mouse, in vivo, po, 20 umol/kg, 20 μmol/kg p.o.

Structure (SMILES): Cc1nnsc1C(=O)N[C@H]1CCN2c3ccc(C#N)cc3[C@@H](C)c3ccccc3[C@@H]2C1 [Org 214007-0]
- EC50 ([1]; Whole blood cell, human whole blood, 24 hours, read-out: EC50, enhancement of PMA/anti-CD28-induced G-CSF release): 186 nM
- IC50 ([1]; Whole blood cell, human whole blood, 24 hours): 14.4 nM
- Max. eff., G-CSF induction [1, 4]: 39 (±7.8) %
- Max. eff., IL-5 repression [1, 4]: 64 (±11) %
- ED50 [2]: ~0.3 mg/kg
- efficacy, inhibition of anti-CD3-induced IL-2 [2]: 75%
- glucokinase flux rate [3]: no significant effects
- gluconeogenic flux (de novo synthesis of glucose-6-phosphate) [3]: Neither Org 214007-0 nor prednisolone, at equi-efficacious dosages, effects
- glucose-6-phosphatase flux [3]: Neither the glucose-6-phosphatase flux (A) nor the glycogen phosphorylase flux (B) were affected
- glycogen phosphorylase flux [3]: Neither the glucose-6-phosphatase flux (A) nor the glycogen phosphorylase flux (B) were affected
- glycogen synthase flux rate [3]: no significant effects
- liver glucose balance [3]: not affected
- liver glycogen balance [3]: not effected
- metabolic clearance rate of blood glucose [3]: Neither Org 214007-0 nor prednisolone, at equi-efficacious dosages, effects
- fasting blood glucose levels vs vehicle [3]: did not affect
- Cl (Pharmacokinetics in mice; 10 μmol/kg p.o.): 6.7 mL/min/kg
- Vz (Pharmacokinetics in mice; 10 μmol/kg p.o.): 3.2 L/kg
- AUC(0-inf) (Pharmacokinetics in mice; [5]): 10.8 µM·h
- AUC(0-t) (Pharmacokinetics in mice; [5]): 10.1 µM·h
- MRT inf (Pharmacokinetics in mice; [5]): 474 min
- clearance (Pharmacokinetics in mice; [5]): 6.67 mL/min/kg
- half-life (Pharmacokinetics in mice; [5]): 384 min
- Vd (Pharmacokinetics in mice; female, Balb/c, mouse, in vivo, iv, 4 umol/kg, 4 μmol/kg i.v., read-out: Vss): 2.9 L/kg
- Vd (Pharmacokinetics in mice; female, Balb/c, mouse, in vivo, iv, 4 umol/kg, 4 μmol/kg i.v., read-out: Vz): 3.4 L/kg
- C0 (Pharmacokinetics in mice; female, Balb/c, mouse, in vivo, iv, 4 μmol/kg i.v.): 2.19 µM
- AUC(0-inf) (Pharmacokinetics in mice; [6]): 24.2 µM·h
- AUC(0-t) (Pharmacokinetics in mice; [6]): 23.2 µM·h
- Cmax (Pharmacokinetics in mice; [6]): 2.12 µM
- MRT inf (Pharmacokinetics in mice; [6]): 426 min
- bioavailability (Pharmacokinetics in mice; female, Balb/c, mouse, in vivo, po, 10 umol/kg, 10 μmol/kg p.o., read-out: F (% bioavailability)): 89.7%
- half-life (Pharmacokinetics in mice; [6]): 318 min
- Tmax (Pharmacokinetics in mice; mouse, in vivo, po, 10 umol/kg, 10 μmol/kg p.o.): 30 min

Structure (SMILES): C[C@]12C=CC(=O)C=C1CC[C@@H]1[C@@H]2[C@@H](O)C[C@@]2(C)[C@H]1CC[C@]2(O)C(=O)CO [prednisolone, reference compound]
- IC50 ([1]; Homo sapiens, Whole blood cell, 24 h): 6.76 nM
- Max. eff., IL-5 repression [1, 4]: 100%
- ED50 [2]: ~10 mg/kg
- efficacy, inhibition of anti-CD3-induced IL-2 [2]: 75%
- glucokinase flux rate [3]: significantly decreased
- gluconeogenic flux (de novo synthesis of glucose-6-phosphate) [3]: no change
- glucose-6-phosphatase flux [3]: Neither the glucose-6-phosphatase flux (A) nor the glycogen phosphorylase flux (B) were affected
- glycogen phosphorylase flux [3]: Neither the glucose-6-phosphatase flux (A) nor the glycogen phosphorylase flux (B) were affected
- glycogen synthase flux rate [3]: significantly decreased
- liver glucose balance [3]: significantly changed
- liver glycogen balance [3]: significantly changed
- metabolic clearance rate of blood glucose [3]: Neither Org 214007-0 nor prednisolone, at equi-efficacious dosages, effects
- fasting blood glucose levels vs vehicle [3]: significantly elevated
- Cl (Pharmacokinetics in mice; 20 μmol/kg p.o.): 30 mL/min/kg
- Vz (Pharmacokinetics in mice; 20 μmol/kg p.o.): 1.2 L/kg
- AUC(0-inf) (Pharmacokinetics in mice; [7]): 7.1 µM·h
- AUC(0-t) (Pharmacokinetics in mice; [7]): 7.1 µM·h
- MRT inf (Pharmacokinetics in mice; [7]): 24 min
- clearance (Pharmacokinetics in mice; [7]): 23.3 mL/min/kg
- half-life (Pharmacokinetics in mice; [7]): 15.6 min
- Vd (Pharmacokinetics in mice; female, Balb/c, mouse, in vivo, iv, 10 umol/kg, 10 μmol/kg i.v., read-out: Vss): 0.5 L/kg
- C0 (Pharmacokinetics in mice; female, Balb/c, mouse, in vivo, iv, 10 μmol/kg i.v.): 18 µM
- AUC(0-inf) (Pharmacokinetics in mice; [8]): 11 µM·h
- AUC(0-t) (Pharmacokinetics in mice; [8]): 11 µM·h
- Cmax (Pharmacokinetics in mice; [8]): 11.5 µM
- MRT inf (Pharmacokinetics in mice; [8]): 48 min
- half-life (Pharmacokinetics in mice; [8]): 24 min
- Tmax (Pharmacokinetics in mice; mouse, in vivo, po, 20 umol/kg, 20 μmol/kg p.o.): 18 min
